Here are results for three compounds from patent publication US9387184B2, “Pharmaceutical compositions for combination therapy” (Saniona A/S, priority 2012, dated 2016).

A short description of series [1]: Real-time feeding monitoring (food intake) in telemetrized rats. In kind it is in vivo, rat. The settings on record: for effect on food intake per se: antihypertensive drug alone, p.o.; for effect on tesofensine-induced reduction in food intake: co-administered with tesofensine 3.0 mg/kg p.o., Metoprolol 10, 20 mg/kg, Telmisartan 1.0, 3.0 mg/kg p.o. As to the method:
(§1) Five months-old male normotensive Sprague-Dawley rats (508±18 g, Harlan, Horst, The Netherlands) were housed in solid bottomed Plexiglas cages with dust free wood chippings and a cardboard tube. Holding rooms were maintained under a 12-h light/dark cycle (lights off: 1500 h). Ambient temperature was 18.0 to 22.0° C. and relative air humidity of 40 to 60%. A dim red light was the sole source of illumination during the dark period. The rats had ad libitum standard chow (Altromin 1324, 10% kcal from fat, energy density 2.85 kcal per g, Altromin GmbH, Lage, Germany) and water. All experiments were approved (permission no. 2007/561-1343) and conducted in accordance with the guidelines of the Animal Experimentation Inspectorate, Ministry of Justice, Denmark.
(§2) Upon 2-3 weeks of post-surgery recovery, the rats were transferred to fully automated food intake monitoring cages (HM-2, MBRose, Faaborg, Denmark) modified to simultaneously determine individualized food intake (by microchip, see below) and cardiovascular condition (by telemetry). For combined telemetry analysis, two receivers (RPC-1, Data Sciences International, St. Paul, Minn.) were placed in the bottom of each HM-2 food intake monitoring cages thereby fully covering the cage surface area. The modified HM-2 food intake monitoring cages were placed in a modified ventilated cabinet with lightproof doors and a light kit for cabinet-based control of light-dark cycle (Scanbur BK, Karslunde, Denmark) being similar to that in the holding rooms. Cabinet temperature was 24.0 to 26.0° C. and relative air humidity of 40 to 60%. The animals were habituated to the HM-2 food intake monitoring system for at least 5 days prior to initiation of drug treatment procedures. Prior to re-housing to the fully automated food intake monitoring cages, the rats were subcutaneuosly injected with a microchip (#402575, eVet, Haderslev, Denmark) to simultaneously identify, and in real-time mode to track feeding behavior of each individual animal throughout the entire experiment. Locomotor activity was detected by an integrated infrared sensor placed above the cage. Standard HM-2 control unit settings are reported previously in further details^7. All drugs and saline vehicle were administered 30 min before dark onset. All rats received the same treatment in each individual experiment, i.e. a parallel study design was used, and a wash-out period of at least 5 days was used between treatments to assure re-establishment of baseline levels of food intake, locomotor activity, heart rate and blood pressure. The home cage was removed from the HM-2 food intake monitoring system during the drug administration procedure and returned immediately after completion of the drug administration, whereupon automated monitoring of feeding behavior and cardiovascular parameters of each individual animal was resumed. Body weight was measured daily. Body weight and microstructural food intake analysis was performed using a data reporting software (HMView, MBRose, Faaborg, Denmark).
(§3) Data were fed into a standard graphic and statistical analysis program (GraphPad Prism v.4.03). Body weight data were calculated as absolute values (g) or daily body weight gain relative (control level=100%) to the first day of drug administration (day 0). Body weight gain and food intake were expressed as means±S.E.M of n individual animals. After acquisition of telemetry data, 12-hour means were calculated using Microsoft Excel 2007. Finally, statistical analysis and data presentation (mean±S.E.M.) was performed using GraphPad Prism v.4.03). All data were evaluated using a repeated-measure one-way ANOVA with Tukey's post-hoc test was applied to perform statistical comparisons between treatment groups. A p-value less than 0.05 was considered statistically significant.
(§4) All drugs were administered p.o. (1.0 ml/kg). […]

The nature of series [2]: Body weight in telemetrized rats. The class given is in vivo, rat. The settings on record: for effect on body weight regulation per se: antihypertensive drug alone, p.o.; for effect on tesofensine-induced reduction in body weight: co-administered with tesofensine 3.0 mg/kg p.o., Metoprolol 10, 20 mg/kg, Telmisartan 1.0, 3.0 mg/kg p.o. As to the method: as §1, §2, §3, §4

Series [3] can be described thus: Telemetric monitoring of heart rate and blood pressure in rats. In kind it is in vivo, rat. The protocol: as §1
The rats were implanted at Harlan laboratories, Horst, the Netherlands, with Data Science International (DSI, St. Paul, USA) Physiotel PA-C40 transmitters according to the manufactures description. In brief, the rats were anaesthetized with isoflurane, ventilated, and a laparotomy was performed under aseptic conditions. A pressure catheter was inserted and sealed in place with Vetbond (3M, St. Paul, USA) into the isolated abdominal aorta. Finally, the transmitter was placed on top of the intestines, in parallel to the long axis of the body, and secured to the abdominal wall, where after the abdominal muscle layer and skin was closed with solvable sutures. The animals were allowed full post-surgical recovery before shipment. Blood pressure (systolic and diastolic arterial blood pressure) and heart rate (pulse rate) data were collected at a sampling rate of 500 Hz using Dataquest A.R.T (v.4.3) and Ponemah software (v.5.0) (DSI, St. Paul, USA) using factory-provided calibration values for the individual transmitters and an Ambient Pressure Reference Monitor (DSI, St. Paul, USA) to ensure accurate blood pressure measurements. Data were collected continuously for 48 h and binned in 5 s intervals.
as §2, with “The home cage was removed from the HM-2 food intake monitoring system during the drug administration procedure and returned immediately after completion of the drug administration, whereupon automated monitoring of feeding behavior and cardiovascular parameters of each individual animal was resumed. Body weight was measured daily. Body weight and microstructural food intake analysis was performed using a data reporting software (HMView, MBRose, Faaborg, Denmark).” left out

A short description of series [4]: Locomotor activity in telemetrized rats (infrared sensor). The class given is in vivo, rat. As to the method: as §1
Upon 2-3 weeks of post-surgery recovery, the rats were transferred to fully automated food intake monitoring cages (HM-2, MBRose, Faaborg, Denmark) modified to simultaneously determine individualized food intake (by microchip, see below) and cardiovascular condition (by telemetry). For combined telemetry analysis, two receivers (RPC-1, Data Sciences International, St. Paul, Minn.) were placed in the bottom of each HM-2 food intake monitoring cages thereby fully covering the cage surface area. […] Locomotor activity was detected by an integrated infrared sensor placed above the cage. […] Body weight was measured daily. […]
as §3, with “Finally, statistical analysis and data presentation (mean±S.E.M.) was performed using GraphPad Prism v.4.03).” left out, “A p-value less than 0.05 was considered statistically significant.” left out

For series [5] the following is noted: long-term treatment, corrected for placebo and diet effects; cited from earlier work.
Setting [6] is: 3.0-5.0 mg/kg p.o., acute, evident for at least 48 hours, compared to vehicle-treated rats.
[7] abbreviates: tesofensine 1.0-5.0 mg/kg p.o., acute.

For `CCCc1nc2c(C)cc(-c3nc4ccccc4n3C)cc2n1Cc1ccc(-c2ccccc2C(=O)O)cc1` [Telmisartan], in series [1], the “effect on food intake per se” value is given as “neither antihypertensive drug exhibited an effect” and the “effect on tesofensine-induced reduction in food intake” value is on record as “did also not affect tesofensine-induced reductions in food intake”. Besides, in series [2], the “effect on body weight regulation per se” value is reported as “neither antihypertensive drug exhibited an effect” and the “effect on tesofensine-induced reduction in body weight” value is recorded as “did also not affect”. In addition, in series [3] (Telmisartan 1.0 and 3.0 co-treatment with tesofensine 3.0 mg/kg p.o.), the “effect on tesofensine-induced rise in heart rate” value is “did not revert the rise in heart rate”. For the same compound, the “heart rate and blood pressure, drug alone” value in series [3] (Telmisartan alone 3.0 mg/kg p.o.) was “no effect on heart rate and blood pressure”. Moreover, in series [3] (Telmisartan co-treatment with tesofensine 3.0 mg/kg p.o., p>0.05 compared to Tesofensine alone), the “effect on Tesofensine-induced increases in diastolic and systolic blood pressure” value is listed as “did not lead to a significant prevention of Tesofensine-induced hypertension”. For the same compound, in series [3] (highest dose of Telmisartan (3.0 mg/kg) combined with tesofensine 3.0 mg/kg p.o.), the “heart rate compared to tesofensine alone” value was “significant increase in heart rate as compared to tesofensine administration alone”.

Turning to `CCOC[C@@H]1[C@@H](c2ccc(Cl)c(Cl)c2)C[C@@H]2CC[C@H]1N2C` [Tesofensine], the “duration of hypophagic effect” value in series [1] (5.0 mg/kg p.o., acute) is no more than 48 h; in series [1] (3.0-5.0 mg/kg p.o., acute), no more than 24 h; in series [1] (all doses (1.0-5.0 mg/kg p.o.), acute), “up to 12 hours”. Moreover, in series [1] (tesofensine 5.0 mg/kg p.o., acute, 12 hours post-dosing, p<0.001), the “food intake relative to the control level” value is reported as “approximately 50%”. Further, the “net body weight loss (absolute)” value in series [2] (setting [6]) was in the range of 8 to 11 g. In series [2] (setting [6]), the “net body weight loss (relative)” value was 1.0-1.5%. In addition, the locomotor activity result in series [4] (3.0-5.0 mg/kg p.o., acute) is recorded as “significant, albeit short-lasting, increase in locomotor activity”. The “duration of induced locomotor activity” value in series [4] (first dark phase after acute dosing) was “up to 12 hours”. The systolic blood pressure entry in series [3] (tesofensine 3.0 mg/kg and 5.0 mg/kg p.o., up to 48 hours after administration) is “dose-dependent modest increase in systolic blood pressure”. Moreover, the heart rate entry in series [3] (tesofensine 3.0 mg/kg p.o., Telmisartan combination study) is “significantly increase heart rate”; in series [3] (setting [7]), “dose-dependent increase in heart rate at all doses tested”. Further, in series [3] (setting [7]), the “duration of heart rate increase” value is “up to 48 hours”. The diastolic blood pressure entry in series [3] (tesofensine 1.0-5.0 mg/kg p.o., highest dose not significant (p=0.204)) is “trend towards a dose-dependent rise in diastolic blood pressure”. Further, in series [5], the “weight loss in obese patients” value is on record as “about 10%”.

On to `COCCc1ccc(OCC(O)CNC(C)C)cc1` (centres unmarked) [Metoprolol, 1-(Isopropylamino)-3-[4-(2-methoxyethyl)-phenoxy]-propan-2-ol], for which, in series [1], the “effect on food intake per se” value is “neither antihypertensive drug exhibited an effect” and the “effect on tesofensine-induced reduction in food intake” value is recorded as “did also not affect tesofensine-induced reductions in food intake”. In addition, in series [2], the “effect on body weight regulation per se” value is listed as “neither antihypertensive drug exhibited an effect” and the “effect on tesofensine-induced reduction in body weight” value is reported as “did also not affect”. In addition, the “effect on tesofensine-induced locomotor activity” value in series [4] (co-administered with tesofensine 3.0 mg/kg p.o., compared to tesofensine alone) is “completely prevented the locomotor activity inducing effect by tesofensine”. The “effect on tesofensine-induced tachycardia” value in series [3] (Metoprolol 10 mg/kg and 20 mg/kg co-treatment with tesofensine 3.0 mg/kg p.o.) is reported as “fully reversed tesofensine-induced tachycardia”. Also, in series [3] (Metoprolol 20 mg/kg co-treatment with tesofensine 3.0 mg/kg p.o., first light phase, 12-24 hours post-treatment), the “effect on tesofensine-evoked increase in diastolic pressure” value was “reversed by co-treatment with Metoprolol”. The “effect on tesofensine-induced rise in systolic blood pressure” value in series [3] (Metoprolol 20 mg/kg co-treatment with tesofensine 3.0 mg/kg p.o., for up to 24 hours) was “normalization of the systolic blood pressure”. The “diastolic blood pressure, drug alone” value in series [3] (Metoprolol 20 mg/kg p.o. alone, first 24 hours) is listed as “did not produce any significant effects on diastolic blood pressure”. For the same compound, the “duration of heart rate lowering effect” value in series [3] (Metoprolol 10 and 20 mg/kg p.o., after administration) was “up to 24 hours”.
